According to ChEMBL document CHEMBL6083227, “Novel sulfonamides unveiled as potent anti-lung cancer agents via tumor pyruvate kinase M2 activation” (RSC Med Chem, 2024):
pEC50, pIC50: −log10 of the molar value.

Key:
A549 = experiment: Antiproliferative activity against human A549 cells incubated for 48 hrs by Alamar blue staining based assay; conditions: A549, 48 h
BEAS-2B = experiment: Antiproliferative activity against human BEAS-2B cells incubated for 48 hrs by Alamar blue staining based assay
Pyruvate kinase PKM = Pyruvate kinase PKM (Homo sapiens, UniProt P14618); experiment: Activation of recombinant human PKM2 using pyruvate as substrate measured for 20 mins in presence of beta-NADH by LDH-coupled assay
Sequence of Pyruvate kinase PKM (P14618 whole entry): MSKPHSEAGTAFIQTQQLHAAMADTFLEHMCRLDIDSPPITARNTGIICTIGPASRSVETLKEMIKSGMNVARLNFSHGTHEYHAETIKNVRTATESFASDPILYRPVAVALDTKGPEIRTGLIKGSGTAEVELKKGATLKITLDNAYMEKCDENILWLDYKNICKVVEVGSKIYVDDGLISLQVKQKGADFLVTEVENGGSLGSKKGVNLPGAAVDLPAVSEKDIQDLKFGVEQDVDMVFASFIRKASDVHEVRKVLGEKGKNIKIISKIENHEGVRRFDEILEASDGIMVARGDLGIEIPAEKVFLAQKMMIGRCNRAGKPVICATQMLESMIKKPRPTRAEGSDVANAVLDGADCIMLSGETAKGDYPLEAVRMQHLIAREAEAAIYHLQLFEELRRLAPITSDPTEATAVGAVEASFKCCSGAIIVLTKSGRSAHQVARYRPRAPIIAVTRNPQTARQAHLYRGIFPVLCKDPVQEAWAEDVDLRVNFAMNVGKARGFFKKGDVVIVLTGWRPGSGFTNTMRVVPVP

pIC50 (A549)	pEC50 (Pyruvate kinase PKM)	SMILES	pIC50 (BEAS-2B)
5.84		Nc1cccc(S(=O)(=O)N2CCCN(S(=O)(=O)c3ccc4c(c3)OCCO4)CC2)c1	4.45
5.82	6.83	N#Cc1ccccc1S(=O)(=O)N1CCN(CC(=O)c2cnc3ccccn23)CC1	4.25
5.84	6.48	COc1ccc(Br)cc1S(=O)(=O)N1CCN(CC(=O)c2cnc3ccccn23)CC1	4.51
5.77	6.42	O=C(CN1CCN(S(=O)(=O)c2ccc(F)cc2)CC1)c1cnc2ccccn12	4.28
5.94	6.87	O=C(CN1CCN(S(=O)(=O)c2cccs2)CC1)c1cnc2ccccn12	4.52
5.91	6.68	O=C(CN1CCN(S(=O)(=O)c2ccc(C(F)(F)F)cc2)CC1)c1cnc2ncccn12	4.80
5.84	6.19	O=C(CN1CCN(S(=O)(=O)c2ccc([N+](=O)[O-])cc2)CC1)c1cnc2ccccn12	4.70
5.94	6.20	O=C(CN1CCN(S(=O)(=O)c2cccc(Br)c2)CC1)c1cnc2ncccn12	4.41
5.74	7.38	COc1ccc(S(=O)(=O)N2CCN(CC(=O)c3cnc4ccccn34)CC2)cc1	4.34
5.89	6.26	O=C(CN1CCN(S(=O)(=O)c2ccc(C(F)(F)F)cc2)CC1)c1cnc2ccccn12	4.21
6.02	6.69	O=C(CN1CCN(S(=O)(=O)c2ccc(F)cc2Cl)CC1)c1cnc2ccccn12	4.42
5.75	7.04	O=C(CN1CCN(S(=O)(=O)C2CC2)CC1)c1cnc2ncccn12	4.27
6.00	6.98	Cc1ccc(S(=O)(=O)N2CCN(CC(=O)c3cnc4ncccn34)CC2)cc1	4.40
5.77	6.74	Cc1cc(C)c(S(=O)(=O)N2CCN(CC(=O)c3cnc4ccccn34)CC2)c(C)c1	4.94
5.80	6.36	COc1ccc(-c2ccc(S(=O)(=O)N3CCN(CC(=O)c4cnc5ncccn45)CC3)cc2)cc1	5.04
5.76	6.21	O=C(CN1CCN(S(=O)(=O)c2ccc(F)cc2Cl)CC1)c1cnc2ncccn12	4.78
5.78	6.05	O=C(CN1CCN(S(=O)(=O)C2CCCCC2)CC1)c1cnc2ccccn12	4.22
5.90	6.19	O=C(CN1CCN(S(=O)(=O)c2cc(F)ccc2F)CC1)c1cnc2ncccn12	4.58
5.77	6.85	O=C(CN1CCN(S(=O)(=O)c2ccccc2)CC1)c1cnc2ccccn12	4.35
5.78	6.22	O=C(CN1CCN(S(=O)(=O)c2cccc(Br)c2)CC1)c1cnc2ccccn12	4.40
5.79		COc1cccc2c1C(=O)c1c(O)c3c(c(O)c1C2=O)C[C@@](O)(C(=O)CO)C[C@@H]3O[C@H]1C[C@H](N)[C@H](O)[C@H](C)O1 [DOXORUBICIN]	4.61
